What was measured:
giant foxtail [1] = assay: Test A pre-/postemergence greenhouse test; format: in vivo, Setaria faberi; conditions: for Foxtail, Giant plant response rating: 0 to 100 scale; for Plant response rating, Foxtail, Giant: 0 to 100 scale where 0 is no effect and 100 is complete control
Procedure, shortened: (§1)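 Visual injury ratings, made relative to untreated controls roughly ten days after treatment, cover both preemergence and postemergence application. Compounds in a surfactant-containing non-phytotoxic solvent were sprayed onto the soil surface after sowing and, simultaneously, onto young plants at the one- to two-leaf stage.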

redroot pigweed = assay: Test A pre-/postemergence greenhouse test; format: in vivo, Amaranthus retroflexus; conditions: for Pigweed plant response rating: 0 to 100 scale; for Plant response rating, Pigweed: 0 to 100 scale where 0 is no effect and 100 is complete control
Procedure, shortened: as §1

velvetleaf [2] = assay: Test A pre-/postemergence greenhouse test; format: in vivo, Abutilon theophrasti; conditions: for Velvetleaf plant response rating: 0 to 100 scale; for Plant response rating, Velvetleaf: 0 to 100 scale where 0 is no effect and 100 is complete control
Procedure, shortened: as §1

wheat = assay: Test A pre-/postemergence greenhouse test; format: in vivo, Triticum aestivum; conditions: for Wheat plant response rating: 0 to 100 scale; for Plant response rating, Wheat: 0 to 100 scale where 0 is no effect and 100 is complete control
Procedure, shortened: as §1

corn = assay: Test A pre-/postemergence greenhouse test; format: in vivo, Zea mays; conditions: for Corn plant response rating: 0 to 100 scale; for Plant response rating, Corn: 0 to 100 scale where 0 is no effect and 100 is complete control
Procedure, shortened: as §1

wild oat = assay: Test C pre-/postemergence test; format: in vivo, Avena fatua
Procedure, shortened: (§2)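 Test chemicals were formulated with surfactant in a non-phytotoxic solvent and sprayed both on freshly planted seeds (preemergence) and on 1- to 4-leaf plants of 2–18 cm (postemergence). Flooded-paddy pots received compound directly into 3 cm of standing water, maintained for the test.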

bermudagrass = assay: Test C pre-/postemergence test; format: in vivo, Cynodon dactylon
Procedure, shortened: as §2

Surinam grass = assay: Test C pre-/postemergence test; format: in vivo, Brachiaria decumbens
Procedure, shortened: as §2

giant foxtail [3] = assay: Test C pre-/postemergence test; format: in vivo, Setaria faberii
Procedure, shortened: as §2

Goosegrass = assay: Test C pre-/postemergence test; format: in vivo, Eleusin indica
Procedure, shortened: as §2

johnsongrass = assay: Test C pre-/postemergence test; format: in vivo, Sorghum halepense
Procedure, shortened: as §2

lambsquarters = assay: Test C pre-/postemergence test; format: in vivo, Chenopodium album
Procedure, shortened: as §2

eastern black nightshade = assay: Test C pre-/postemergence test; format: in vivo, Solanum ptycanthum
Procedure, shortened: as §2

common ragweed = assay: Test C pre-/postemergence test; format: in vivo, Ambrosia elation
Procedure, shortened: as §2

velvetleaf [4] = assay: Test C pre-/postemergence test; format: in vivo, Abutilon theophrasti
Procedure, shortened: as §2

rice = assay: Test C flooded paddy test; format: in vivo, Oryza sativa; conditions: Flood
Procedure, shortened: (§3)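 Compound was added to standing water 3 cm above soil, flood maintained, and plants held in a greenhouse before visual scoring against controls at 13 to 15 days.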

duck salad = assay: Test C flooded paddy test; format: in vivo, Heteranthera limosa; conditions: Flood
Procedure, shortened: as §3

barnyardgrass = assay: Test C flooded paddy test; format: in vivo, Echinochloa crus-galli; conditions: Flood
Procedure, shortened: as §3

[5] = Postemergence, 125 g ai/ha, 0 is no effect, 100 is complete control
[6] = Postemergence, 500 g ai/ha, 0 is no effect, 100 is complete control
[7] = Preemergence, 125 g ai/ha, 0 no effect, 100 complete control
[8] = 31 g ai/ha, Preemergence, scale 0 to 100
[9] = 62 g ai/ha, preemergence, scale 0 (no effect) to 100 (complete control)
[10] = preemergence, 125 g ai/ha, scale 0 (no effect) to 100 (complete control)
[11] = 31 g ai/ha, scale 0 to 100 (0 no effect, 100 complete control)
[12] = 62 g ai/ha, scale 0 to 100, 0 no effect, 100 complete control, 13 to 15 days
[13] = 125 g ai/ha, scale 0 to 100, 0 no effect, 100 complete control, 13 to 15 days
[14] = 250 g ai/ha, scale 0 to 100 (0 no effect, 100 complete control)
[15] = 62 g ai/ha, Preemergence, scale 0 to 100
[16] = 125 g ai/ha, preemergence, scale 0 (no effect) to 100 (complete control)
[17] = Preemergence, 31 g ai/ha, scale 0 to 100 (0 no effect, 100 complete control)
[18] = preemergence, 250 g ai/ha, scale 0 (no effect) to 100 (complete control)
[19] = 62 g ai/ha, scale 0 to 100 (0 no effect, 100 complete control)
[20] = 250 g ai/ha, scale 0 to 100, 0 no effect, 100 complete control, 13 to 15 days

Cc1cc[n+]([O-])c(S(=O)(=O)C(C)c2c(C(F)(F)F)nn(C)c2OC(F)F)c1 (centres unmarked) [Compound 11]
Foxtail, Giant plant response rating (giant foxtail [1]; [5]): 70 | Foxtail, Giant plant response rating (giant foxtail [1]; [6]): 80 | Foxtail, Giant plant response rating (giant foxtail [1]; [7]): 100 | Plant response rating, Foxtail, Giant (giant foxtail [1]; Preemergence, 500 g ai/ha): 100 | Pigweed plant response rating (redroot pigweed; [5]): 10 | Pigweed plant response rating (redroot pigweed; [6]): 60 | Pigweed plant response rating (redroot pigweed; [7]): 100 | Plant response rating, Pigweed (redroot pigweed; Preemergence, 500 g ai/ha): 100 | Velvetleaf plant response rating (velvetleaf [2]; [5]): 40 | Velvetleaf plant response rating (velvetleaf [2]; [6]): 60 | Velvetleaf plant response rating (velvetleaf [2]; [7]): 80 | Plant response rating, Velvetleaf (velvetleaf [2]; Preemergence, 500 g ai/ha): 90 | Wheat plant response rating (wheat; [5]): 50 | Wheat plant response rating (wheat; [6]): 60 | Wheat plant response rating (wheat; [7]): 50 | Plant response rating, Wheat (wheat; Preemergence, 500 g ai/ha): 80 | Corn plant response rating (corn; [5]): 30 | Corn plant response rating (corn; [6]): 50 | Corn plant response rating (corn; [7]): 30 | Plant response rating, Corn (corn; Preemergence, 500 g ai/ha): 60 | Oat, Wild plant response rating (wild oat; [8]): 0 | Oat, Wild plant response rating (wild oat; [9]): 0 | Plant response rating (0 to 100), Oat, Wild (wild oat; Preemergence, 250 g ai/ha): 80 | Oat, Wild plant response rating (wild oat; [10]): 20 | Bermudagrass plant response rating (bermudagrass; [8]): 100 | Bermudagrass plant response rating (bermudagrass; [9]): 100 | Plant response rating (0 to 100), Bermudagrass (bermudagrass; Preemergence, 250 g ai/ha): 100 | Bermudagrass plant response rating (bermudagrass; [10]): 100 | Surinam Grass plant response rating (Surinam grass; [9]): 80 | Plant response rating (0 to 100), Surinam Grass (Surinam grass; Preemergence, 250 g ai/ha): 100 | Surinam Grass plant response rating (Surinam grass; [10]): 95 | Foxtail, Giant plant response rating (giant foxtail [3]; [8]): 80 | Foxtail, Giant plant response rating (giant foxtail [3]; [9]): 98 | Plant response rating (0 to 100), Foxtail, Giant (giant foxtail [3]; Preemergence, 250 g ai/ha): 100 | Goosegrass plant response rating (Goosegrass; [8]): 100 | Goosegrass plant response rating (Goosegrass; [9]): 100 | Plant response rating (0 to 100), Goosegrass (Goosegrass; Preemergence, 250 g ai/ha): 100 | Goosegrass plant response rating (Goosegrass; [10]): 100 | Johnsongrass plant response rating (johnsongrass; [8]): 100 | Johnsongrass plant response rating (johnsongrass; [9]): 100 | Plant response rating (0 to 100), Johnsongrass (johnsongrass; Preemergence, 250 g ai/ha): 100 | Johnsongrass plant response rating (johnsongrass; [10]): 100 | Lambsquarters plant response rating (lambsquarters; [8]): 100 | Lambsquarters plant response rating (lambsquarters; [9]): 100 | Plant response rating (0 to 100), Lambsquarters (lambsquarters; Preemergence, 250 g ai/ha): 100 | Lambsquarters plant response rating (lambsquarters; [10]): 100 | Nightshade plant response rating (eastern black nightshade; [8]): 95 | Nightshade plant response rating (eastern black nightshade; [9]): 100 | Plant response rating (0 to 100), Nightshade (eastern black nightshade; Preemergence, 250 g ai/ha): 100 | Nightshade plant response rating (eastern black nightshade; [10]): 100 | Ragweed plant response rating (common ragweed; [8]): 55 | Ragweed plant response rating (common ragweed; [9]): 75 | Plant response rating (0 to 100), Ragweed (common ragweed; Preemergence, 250 g ai/ha): 100 | Ragweed plant response rating (common ragweed; [10]): 95 | Velvetleaf plant response rating (velvetleaf [4]; [9]): 70 | Plant response rating (0 to 100), Velvetleaf (velvetleaf [4]; Preemergence, 250 g ai/ha): 100 | Velvetleaf plant response rating (velvetleaf [4]; [10]): 100 | Plant response rating, Rice (rice; [11]): 0 | Plant response rating, Rice (rice; [12]): 70 | Plant response rating, Rice (rice; [13]): 80 | Plant response rating, Rice (rice; [14]): 80 | Plant response rating, Ducksalad (duck salad; [11]): 0 | Plant response rating, Ducksalad (duck salad; [12]): 65 | Plant response rating, Ducksalad (duck salad; [13]): 85 | Plant response rating, Ducksalad (duck salad; [14]): 90 | Plant response rating, Barnyardgrass (barnyardgrass; [11]): 0 | Plant response rating, Barnyardgrass (barnyardgrass; [12]): 70 | Plant response rating, Barnyardgrass (barnyardgrass; [13]): 75 | Plant response rating, Barnyardgrass (barnyardgrass; [14]): 85

Cc1cc([S+]([O-])Cc2c(C(F)(F)F)nn(C)c2OCC(F)(F)F)[n+]([O-])cc1Cl (centres unmarked) [Compound 70]
Plant response rating, Foxtail, Giant (giant foxtail [1]; Postemergence, 125 g ai/ha): 60 | Foxtail, Giant plant response rating (giant foxtail [1]; [6]): 90 | Foxtail, Giant plant response rating (giant foxtail [1]; [7]): 100 | Plant response rating, Foxtail, Giant (giant foxtail [1]; Preemergence, 500 g ai/ha): 100 | Plant response rating, Pigweed (redroot pigweed; Postemergence, 125 g ai/ha): 40 | Pigweed plant response rating (redroot pigweed; [6]): 80 | Pigweed plant response rating (redroot pigweed; [7]): 90 | Plant response rating, Pigweed (redroot pigweed; Preemergence, 500 g ai/ha): 100 | Plant response rating, Velvetleaf (velvetleaf [2]; Postemergence, 125 g ai/ha): 60 | Velvetleaf plant response rating (velvetleaf [2]; [6]): 70 | Velvetleaf plant response rating (velvetleaf [2]; [7]): 40 | Plant response rating, Velvetleaf (velvetleaf [2]; Preemergence, 500 g ai/ha): 100 | Plant response rating, Wheat (wheat; Postemergence, 125 g ai/ha): 70 | Wheat plant response rating (wheat; [6]): 70 | Wheat plant response rating (wheat; [7]): 50 | Plant response rating, Wheat (wheat; Preemergence, 500 g ai/ha): 90 | Plant response rating, Corn (corn; Postemergence, 125 g ai/ha): 50 | Corn plant response rating (corn; [6]): 80 | Corn plant response rating (corn; [7]): 20 | Plant response rating, Corn (corn; Preemergence, 500 g ai/ha): 90 | Oat, Wild plant response rating (wild oat; [15]): 95 | Oat, Wild plant response rating (wild oat; [16]): 100 | Plant response rating, Oat, Wild (wild oat; [17]): 70 | Oat, Wild plant response rating (wild oat; [18]): 100 | Bermudagrass plant response rating (bermudagrass; 62 g ai/ha, Preemergence, scale 0 to 100 (0 no effect, 100 complete control)): 100 | Bermudagrass plant response rating (bermudagrass; [16]): 100 | Plant response rating, Bermudagrass (bermudagrass; [17]): 100 | Bermudagrass plant response rating (bermudagrass; [18]): 100 | Surinam Grass plant response rating (Surinam grass; [15]): 85 | Surinam Grass plant response rating (Surinam grass; [16]): 90 | Plant response rating, Surinam Grass (Surinam grass; [17]): 65 | Surinam Grass plant response rating (Surinam grass; [18]): 100 | Foxtail, Giant plant response rating (giant foxtail [3]; [15]): 100 | Plant response rating, Foxtail, Giant (giant foxtail [3]; [17]): 90 | Foxtail, Giant plant response rating (giant foxtail [3]; [18]): 100 | Goosegrass plant response rating (Goosegrass; [15]): 100 | Goosegrass plant response rating (Goosegrass; [16]): 100 | Plant response rating, Goosegrass (Goosegrass; [17]): 100 | Goosegrass plant response rating (Goosegrass; [18]): 100 | Johnsongrass plant response rating (johnsongrass; [15]): 100 | Johnsongrass plant response rating (johnsongrass; [16]): 100 | Plant response rating, Johnsongrass (johnsongrass; [17]): 70 | Johnsongrass plant response rating (johnsongrass; [18]): 100 | Lambsquarters plant response rating (lambsquarters; [15]): 100 | Lambsquarters plant response rating (lambsquarters; [16]): 100 | Plant response rating, Lambsquarters (lambsquarters; [17]): 100 | Lambsquarters plant response rating (lambsquarters; [18]): 100 | Nightshade plant response rating (eastern black nightshade; [15]): 100 | Nightshade plant response rating (eastern black nightshade; [16]): 100 | Plant response rating, Nightshade (eastern black nightshade; [17]): 100 | Nightshade plant response rating (eastern black nightshade; [18]): 100 | Ragweed plant response rating (common ragweed; [15]): 80 | Ragweed plant response rating (common ragweed; [16]): 80 | Plant response rating, Ragweed (common ragweed; [17]): 0 | Ragweed plant response rating (common ragweed; [18]): 100 | Velvetleaf plant response rating (velvetleaf [4]; [15]): 85 | Velvetleaf plant response rating (velvetleaf [4]; [16]): 100 | Plant response rating, Velvetleaf (velvetleaf [4]; [17]): 35 | Velvetleaf plant response rating (velvetleaf [4]; [18]): 100 | Plant response rating, Rice (rice; [19]): 45 | Plant response rating, Rice (rice; [20]): 90 | Plant response rating, Ducksalad (duck salad; [19]): 85 | Plant response rating, Ducksalad (duck salad; [20]): 100 | Plant response rating, Barnyardgrass (barnyardgrass; [19]): 0 | Plant response rating, Barnyardgrass (barnyardgrass; [20]): 95

From patent publication US20100298141A1, “SUBSTITUTED PYRIDINE N-OXIDE HERBICIDES” (E. I. DU PONT DE NEMOURS AND COMPANY, priority 2007, published 2010)
